{"source": "paper PMC8964423", "about": "(Frontiers in Chemistry, 2022)", "key": {"[1]": {"test_system": "A375P", "assay": "Cell viability assay, A375P", "type": "cell-based, human", "conditions": "skin melanoma; treated 2 days; mean ± SD (n = 3)", "procedure": "(§1) HeLa (ATCC; CCL-2) and CaSki (ATCC; CRL-1550) were cultured in Roswell Park Memorial Institute (RPMI) 1,640 Medium (Gibco; #11875-093) supplemented with heat-inactivated 10% fetal bovine serum (FBS) (Gibco; #16000-044), and 1% penicillin (100 units/mL)/streptomycin (100 μg/mL) solution (Gibco; #15240-062). A375P (ATCC; CRL-3224), HEK293T (ATCC; […] CRL-2541) were cultured in Dulbecco's Modified Eagle's Medium (DMEM) (Gibco; #11995-065) supplemented with heat-inactivated 10% FBS (Gibco; #16000-044), and 1% penicillin/streptomycin solution (Gibco; #15240-062). All types of cells were maintained in 100-mm cell culture dishes in a humidified atmosphere of a 5% CO2 incubator at 37°C. All cells were cultured every 2 days using trypsin (Gibco; #12605-010). […] BF-400-S). […] […]), carboplatin (Sigma; […] After changing the culture medium to 100 μL of fresh culture medium, 10 μL of Ez-cytox solution (Dogen; EZ-BULK150) was added to the 96-well plate. […] Synergy)."}, "[2]": {"test_system": "Caski", "assay": "Cell viability assay, CaSki", "type": "cell-based, human", "conditions": "cervical cancer; treated 2 days; mean ± SD (n = 3)", "procedure": "as §1"}, "[3]": {"test_system": "HeLa", "assay": "Cell viability assay (Ez-cytox; Table 1 says MTT), HeLa", "type": "cell-based, human", "conditions": "cervical cancer; treated 2 days; mean ± SD (n = 3)", "procedure": "as §1"}, "[4]": {"test_system": "HEK293T", "assay": "Cell viability assay, HEK293T", "type": "cell-based, human", "conditions": "embryonic kidney cells (non-cancer); treated 2 days; mean ± SD (n = 3)", "procedure": "as §1"}, "[5]": {"test_system": "C8-D1A", "assay": "Cell viability assay, C8-D1A", "type": "cell-based, murine", "conditions": "normal astrocyte; treated 2 days; mean ± SD (n = 3)", "procedure": "as §1"}, "[6]": {"test_system": "HeLa cells", "assay": "Mitochondrial monitoring in live HeLa cells (mitochondrial fission)", "conditions": "10 μM TRIP, 50 μM Mdivi-1 pre-treated 1 h"}, "[7]": {"test_system": "CHOP", "assay": "Immunoblotting of CHOP signaling pathways in HeLa cells", "type": "cell-based, human", "procedure": "The concentration of the soluble protein fraction was measured by BCA protein assay kit (Thermo; #23225)."}, "[8]": {"test_system": "HeLa cells", "assay": "ICP-MS metal accumulation in DNA and proteins of HeLa cells", "type": "cell-based, human", "conditions": "10 μM, 1, 2, 4 and 8 h", "procedure": "After washing with 1× phospho-buffered saline (PBS, Welgene; ML008-02), HeLa cells harvested by trypsinization (Gibco; #12605-010) were used for either protein or DNA extraction. […] The concentration of the soluble protein fraction was measured by BCA (bicinchoninic acid) protein assay kit (Thermo; #23225). Cell lysates were digested in concentrated HNO3 at 160°C for 3 h and rested at room temperature overnight. The digested cell lysates were diluted in DW to make the final concentration of HNO3 less than 5%. […] The metal accumulations in proteins were expressed as ng Pt or Re/mg protein. In order to quantify metal accumulations in DNA, cells were re-suspended in 300 μL of lysis buffer [100 mM NaCl, 25 mM EDTA (Acros; #11843-5000), 0.5% SDS (w/v) (Acros; #230420100), 0.1 mg/ml proteinase K (Merck; #70663-4CN), and 10 mM Tris-HCl, pH 8.0] and incubated at 50°C overnight. A 300 μL of phenol:chloroform:isoamyl alcohol mixture (25:24:1, Sigma; #77617) was added to cell lysates and shaken vigorously. After centrifugation at 13,000 g for 5 min, upper layer containing DNA, out of two layers, was transferred to a new tube. […] DNA concentration was quantified by measuring the absorbance at 260 nm. […] Metal contents in DNA were quantified by ICP-MS as same method as measuring metal contents in protein. The metal accumulations in DNA were expressed as ng Pt or Re/mg DNA."}, "[9]": {"test_system": "HeLa cells", "assay": "Flow cytometry apoptosis analysis (Annexin V-FITC) in HeLa cells", "type": "cell-based, human", "conditions": "10 μM TRIP or 50 μM etoposide, 24 h", "protocol": "HeLa cells were treated with each compound for the designated time and dose, or transfected with siRNAs using Lipofectamine RNAiMAX (Thermo; #15338100). The cells were trypsinized and re-suspended in PBS containing 2% FBS (Gibco; #16000-044). To measure mitochondrial reactive oxygen species (ROS) and polarization, we stained the same number of re-suspended cells with either 2.5 μM of mitoSOX (Invitrogen; M36008) or 500 nM of TMRE (tetramethylrhodamine ethyl ester) (Invitrogen; T669) at 37°C for 1 h. To measure apoptosis, we also stained the same number of re-suspended cells with Annexin V-FITC Apoptosis Staining and Detection Kit (Abcam; ab14085) according to the manufacturer’s protocol. The stained cells were subjected to flow cytometry analysis using FACSAria II (BD)."}}, "data": [{"smiles": "N.N.O=C([O-])C1(C(=O)[O-])CCC1.[Pt+2]", "note": "[Carboplatin, carboplatin]", "values": [{"measurement": "IC50", "setting": "[1]", "result": "23 ± 0.85", "unit": "µM"}, {"measurement": "IC50", "setting": "[2]", "result": "22.73 ± 0.2", "unit": "µM"}, {"measurement": "IC50", "setting": "[3]", "result": "40.5 ± 2.62", "unit": "µM"}, {"measurement": "IC50", "setting": "[4]", "result": "49.6 ± 6.99", "unit": "µM"}, {"measurement": "IC50", "setting": "[5]", "result": "23.66 ± 0.21", "unit": "µM"}]}, {"smiles": "COc1cc(-n2c(=S)[nH]c3ccccc3c2=O)c(Cl)cc1Cl", "note": "[Mdivi-1]", "values": [{"measurement": "mitochondrial fission", "setting": "[6]", "result": "could be blocked by Mdivi-1 treatment"}, {"measurement": "effect on TRIP-induced CHOP activation", "setting": "[7]; 50 μM Mdivi-1 co-treatment with TRIP", "result": "accelerated TRIP-induced CHOP activation"}, {"measurement": "effect on thapsigargin-induced CHOP activation", "setting": "[7]; Mdivi-1 co-treatment with thapsigargin", "result": "did not boost thapsigargin-induced CHOP activation"}]}, {"smiles": "N.N.[Cl][Pt][Cl]", "note": "[Cisplatin, cisplatin]", "values": [{"measurement": "IC50", "setting": "[1]", "result": "8.35 ± 0.37", "unit": "µM"}, {"measurement": "IC50", "setting": "[2]", "result": "7.89 ± 0.26", "unit": "µM"}, {"measurement": "IC50", "setting": "[3]", "result": "9.2 ± 0.38", "unit": "µM"}, {"measurement": "metal accumulation in DNA and proteins (Pt for cisplatin, Re for TRIP)", "setting": "[8]", "result": "induced the DNA platination in a time-dependent manner"}, {"measurement": "IC50", "setting": "[4]", "result": "8.33 ± 0.3", "unit": "µM"}, {"measurement": "IC50", "setting": "[5]", "result": "10.2 ± 0.23", "unit": "µM"}]}, {"smiles": "C/C=C(/C)C(=O)O[C@H]1C(C)=C2[C@H]([C@@H]1OC(=O)CCCCCCC)[C@@](C)(OC(C)=O)C[C@H](OC(=O)CCC)[C@@]1(O)[C@H]2OC(=O)[C@@]1(C)O", "note": "[thapsigargin]", "values": [{"measurement": "time to activation of p-eIF2α/ATF4 signaling pathway", "setting": "[7]; 200 nM thapsigargin", "result": "≤ 1", "unit": "h"}, {"measurement": "time after which CHOP activation was observed", "setting": "[7]; 200 nM thapsigargin or 10 μM TRIP", "result": 2, "unit": "h"}]}, {"smiles": "COc1cc([C@@H]2c3cc4c(cc3[C@@H](O[C@@H]3O[C@@H]5CO[C@@H](C)O[C@H]5[C@H](O)[C@H]3O)[C@H]3COC(=O)[C@H]23)OCO4)cc(OC)c1O", "note": "[Etoposide, etoposide]", "values": [{"measurement": "mode of cell death", "setting": "[9]", "result": "via apoptosis, not necrosis"}]}]}
